These results are taken from US20080085859A1, “Drug Promoting Ceramide Transport, Base Sequence for Producing the Drug, Method of Measuring Activity of Promoting Ceramide Release and Method of Measuring Activity of Promoting Intermembrane Ceramide Transfer” (JAPAN SCIENCE AND TECHNOLOGY AGENCY, priority 2003, published 2008).

Common to all, as to type: cell-based, Chinese hamster
The test system of one assay is CHO-K1 cell. Kind of assay: influence of ceramide transport inhibitor on SM synthesis, [14C] serine labeling. Particulars: 1 μM, FIG. 8. As for the experimental part:
(§1) CHO-K1 cell, LY-A2 cell, and LY-A2/hCERT cell were inoculated at the cell density of 1.0×10^6 per culture dish having the 60-mm diameter, and cultured at 33° C. overnight. Subsequently, it was exchanged with […] of Nutridoma medium, after [^14C] serine (0.75 μCi) or [^14C] choline (1.0 μCi) have been added, in the case where [^14C] serine is added, it was cultured for 2 hours, and in the case where [^14C] choline is added, it was cultured at 33° C. for 5 hours. However, in the case where the influence on (1R, 3R) HPA-12 is analyzed, after it was pretreated at […] for 15 minutes in 1.5 mL of Nutridoma medium to which 1 μM of (1R,3R) HPA-12 has been added (in control experiment, dimethylsulfoxide used for dissolving a drug was added at the concentration corresponding to 0.01% of the final concentration), [^14C] serine was added, and cultured at 33° C. for 2 hours. After the cell was washed twice in 2 mL of cooled PBS, dissolved in 900 μL of sodium dodecyl sulfate (SDS), then, 800 μL and 20 μL of dissolved matter were used for determining lipid extraction and protein concentration. For the purpose of analyzing lipid labeled with [^14C] serine, the lipid was separated by TLC by making acetic methyl/n-propanol/chloroform/methanol/0.25% KCl (25:25:25 10:9, volume ratio) development solvent. The radioactive lipid separated on the plate was detected and analyzed by an image analyzer.
(§2) The present inventors have already found a selective inhibitor with respect to ATP dependent ceramide transport pathway (J. Biol. Chem. 276,43994-44002, 2001). For the purpose of examining whether or not ceramide transport pathway recovered by introducing hCERT is a transport pathway which is sensitive to (1R,3R) HPA-12, the analysis of the influence of (1R, 3R) HPA-12 treatment with respect to SM biosynthesis was performed by performing a lipid metabolism labeling experiment using radioactive serine.

Assay [1] concerns LY-A2 cell. The description is as above. The following applies: FIG. 8. As for the experimental part:
as §1, §2

The subject of assay [2] is LY-A2 cell. Kind of assay: MCD resistance by counting the number of survived cells. The following applies: LY-A2 cell infected with expressing retrovirus, FIGS. 10(A), 12(A). As for the experimental part:
The method of selecting function recovery strain used herein was performed on the basis of the knowledge that a cell whose SM content has been reduced becomes highly sensitive to cholesterol drawing reagent/methylcyclodextrin (MCD), and the cell whose SM content has been recovered recovers the resistance to MCD. As described in the foregoing paragraph, after the infected cell that has been seeded and cultured at 33° C. overnight was washed twice in 10 mL of serum-free F12 medium, it has been at 37° C. for one hour in 25 mL. After the culture dish was washed three times with 12 mL of PBS, 25 mL of F12/NBS was added and cultured at 33° C. for 7 to 10 days. […]
It has been validated whether or not CERT protein and CERTL which is a large separate splicing type product having 26 amino acid residue complements the deletion of LY-A cell. […] The MCD resistance of the obtained (LY-A2+FL-hCERT) cell and ((LY-A2+FL-hCERTL) cell were measured by counting the number of survived cells in accordance with the method described in <Method of selecting MCD resistance recovery strain>. Moreover, the MCD resistance of (LY-A2+empty vector) cell, CHO-K1 cell and LY-A2 cell obtained by infecting LY-A2 cell using pLIB vector in which gene has not been inserted were also similarly measured. The results are indicated in FIG. 10(A). […]

With `CCCCCCCCCCCC(=O)N[C@@H](CO)C[C@@H](O)c1ccccc1` [(1R,3R) HPA-12, (1R,3R)N-(3-hydroxy-1-hydroxymethyl-3-phenyprol) dodecane amide], the “inhibition of SM synthesis” value in the assay on CHO-K1 cell is “significantly inhibited”; in the assay with LY-A2 cell [1] (1 μM, cell printed as LY-A2 cell (first sentence of b175)) it was “significantly inhibited”. Also, the “additional inhibition of SM biosynthesis” value with LY-A2 cell [1] (LY-A2 cell where HPA-12-sensitive pathway is impaired) is listed as “another additional inhibition was not seen”.

B1: FL-hCERT: hCERT with FL (FLAG) sequence added to amino end (protein, UniProt Q9Y5P4 1-624, looked up)
Ceramide transfer protein: MSDNQSWNSSGSEEDPETESGPPVERCGVLSKWTNYIHGWQDRWVVLKNNALSYYKSEDETEYGCRGSICLSKAVITPHDFDECRFDISVNDSVWYLRAQDPDHRQQWIDAIEQHKTESGYGSESSLRRHGSMVSLVSGASGYSATSTSSFKKGHSLREKLAEMETFRDILCRQVDTLQKYFDACADAVSKDELQRDKVVEDDEDDFPTTRSDGDFLHSTNGNKEKLFPHVTPKGINGIDFKGEAITFKATTAGILATLSHCIELMVKREDSWQKRLDKETEKKRRTEEAYKNAMTELKKKSHFGGPDYEEGPNSLINEEEFFDAVEAALDRQDKIEEQSQSEKVRLHWPTSLPSGDAFSSVGTHRFVQKPYSRSSSMSSIDLVSASDDVHRFSSQVEEMVQNHMTYSLQDVGGDANWQLVVEEGEMKVYRREVEENGIVLDPLKATHAVKGVTGHEVCNYFWNVDVRNDWETTIENFHVVETLADNAIIIYQTHKRVWPASQRDVLYLSVIRKIPALTENDPETWIVCNFSVDHDSAPLNNRCVRAKINVAMICQTLVSPPEGNQEISRDNILCKITYVANVNPGGWAPASVLRAVAKREYPKFLKRFTSYVQEKTAGKPILF
modifications: N-terminal FLAG tag
For B1, the MCD resistance entry with LY-A2 cell [2] is given as “significantly acquired the MCD resistance”.
